Source: patent US5646132A, “2(1H)-quinolone compounds” (Adir et Compagnie, priority 1993, dated 1997)
pIC50, pKi: −log10 of the molar value.

Key:
[1] = tested on: audiogenic (glutamate-dependent) convulsions in DBA/2 mice; assay: Audiogenic convulsions test in DBA/2 mice; assay type: in vivo, mouse (DBA/2); details: for activity by the oral route, audiogenic convulsions: oral administration
Excerpt: (§1) Furthermore, the compounds of the invention have an in vivo activity which is unique and exceptional for the products of this class. In fact, in the audiogenic convulsions test in DBA/2 mice carried out according to the methodology described by CROUCHER et al.

[2] = target: AMPA receptor; assay: Membrane binding, [3H]-AMPA, rat cortex homogenate; details: rat cortex membranes
Description: This is carried out using a rat cortex homogenate. The membrane pellet is prepared in a conventional manner in a sucrose buffer by differential centrifugations, and then frozen until used. After thawing, […] of membrane homogenate are taken up in a Tris-HCl (30 mM), CaCl2 (2.5 mM) buffer, pH 7.4, and incubated at 4° C. for 30 minutes in the presence of 25 μl of [^3 H]-AMPA or [^3 H]-kainate and 25 μl of the test product. Non-specific binding is determined in the presence of 10 μM quisqualate (AMPA binding) or 10 μM kainic acid (kainate binding). The membranes are then isolated by filtration. After drying of the filters, the radioactivity is measured by scintillation.

[3] = Audiogenic convulsions test in DBA/2 mice; assay type: in vivo, mouse (DBA/2); details: mouse, in vivo, IP vs PO
Excerpt: as §1

[4] = tested on: Kainate current (glutamate receptors; AMPA/kainate receptors); assay: Currents induced by kainate in Xenopus oocytes expressing the glutamate receptors; assay type: cell-based, rat; details: kainate 100 μM, read-out: IC50, inhibition of kainate current
Description: 2/ Currents induced by EAA in Xenopus oocytes
Xenopus oocytes are injected with 50 ng of poly(A)^+ mRNA isolated from rat cerebral cortex, and incubated for 2 to 3 days at 18° C. to permit protein expression therein. The inward currents induced by EAA are measured in a medium of composition: NaCl (82.5 mM), KCl (2.5 mM), CaCl2 (1 mM), MgCl2 (1 mM), NaH2 PO4 (1 mM), HEPES (5 mM), pH 7.4, by the 2-electrode voltage-clamp method (potential=-60 mV). For measurement of the currents induced by NMDA and glycine, MgCl2 is absent from the medium and CaCl2 is brought to a concentration of 2 mM. The EAA agonists that induce the currents are used at the following concentrations: kainate: 100 μm; AMPA: 30 μM; glycine/NMDA: 3/30 μM. The test product is applied 30 seconds before and during the application of the agonist.

[5] = tested on: cortical infarct; assay: Permanent focal ischemia in mice (MCA occlusion); assay type: in vivo
Description: 2) Permanent focal ischemia in mice
This ischemia can be perfectly reproduced in mice by electrocoagulation of MCA, giving rise to a well delimited cortical infarct 24 hours later. This infarct can be easily measured by histological examination.

[6] = tested on: hippocampal pyramidal neurons (CA1); assay: Transient global cerebral ischemia in Gerbil; assay type: in vivo
Description: 1) Transient global cerebral ischemia in Gerbil
Transient and complete arrest of cerebral blood flow which is observed in clinical situation during a cardiac infarct, gives rise to a delayed death of specific vulnerable neurons, especially in hippocampus, a crucial cerebral region for cognitive functions. This phenomenon can be experimentally reproduced after transient occlusion of common carotid arteries.
In Gerbil, a transient occlusion (5 minutes) of carotid arteries gives rise to a total loss of hippocampal pyramidal neurons (CA1). This death can be observed only 3 or 4 days after ischemia. Numerous studies have shown that it could be due essentially to an excessive release of glutamate during the post-ischemic reperfusion.
NBQX (30 mg/kg IP) protects 50% of neurons in case of treatment 30 minutes before then b.i.d. after ischemia until histological measurement 4 days later.

[7] = tested on: neurotoxic excitatory currents in the hippocampus; assay: Neurotoxic excitatory currents induced in the hippocampus by stimulation of the glutamatergic pathways (Schaeffer's collaterals); details: read-out: IC50 with respect to neurotoxic excitatory currents induced in the hippocampus
Description: This inhibition is strong and constant since the same IC50 (2 μM) is found with respect to neurotoxic excitatory currents induced in the hippocampus by stimulation of the glutamatergic pathways (Schaeffer's collaterals).

[8] = 30 mg/kg IP before then 3 hours after ischemia, significant decrease
[9] = 30 mg/kg, curative only (5 minutes, 1 hour and 2 hours after MCA occlusion)
[10] = 30 mg/kg IP, 30 minutes before then b.i.d. after ischemia, histology 4 days later

Compound | activity by the oral route, audiogenic convulsions [1] | pKi [2] | bioavailability index (ID50 IP/ID50 PO) [3] | ED50 ([1]; Mus musculus, IP administration, read-out: ID50, audiogenic convulsions) [mg/kg] | pIC50 [4] | change of infarct volume [5, 8] [%] | change of infarct volume [5, 9] [%] | protection of hippocampal neurons ([6]; 10 mg/kg IP, same conditions) [%] | protection from neuronal death (in words) [6, 10] | pIC50 [7] | effect on infarct volume (in words) [5, 9] | protection of neurons [6, 10] [%]
N#Cc1cc2[nH]c(=O)c(=O)[nH]c2cc1[N+](=O)[O-] [CNQX, 6-cyano-7-nitro-2,3-quinoxalinedione, reference compound] | do not have any activity by the oral route | 7.15 |  |  |  |  |  |  |  |  |  | 
O=c1[nH]c2cc(Cl)c(Cl)cc2cc1P(=O)(O)O [Example 2, 6,7-Dichloro-2(1H)-quinolone-3-phosphonic acid] | also after oral administration | 6.05 | ~0.3 | 18.7 | 5.70 | -26 | -23 | 50 | protects completely from neuronal death | 5.70 |  | 
NS(=O)(=O)c1cccc2c1c([N+](=O)[O-])cc1[nH]c(=O)c(=O)[nH]c12 [NBQX, 6-nitro-7-sulfamoylbenzo[f]quinoxaline-2,3-dione, reference compound] | do not have any activity by the oral route |  |  |  |  | -26 |  |  |  |  | remains ineffective | 50
